According to the supplement of paper PMC10307832:

What was measured:
Assay in all cases: relative viability (nuclei count vs DMSO), 5 days (fraction); higher = more cells survive
[1] = compound: COc1cc(Nc2c(C#N)cnc3cc(OCCCN4CCN(C)CC4)c(OC)cc23)c(Cl)cc1Cl [Bosutinib] + Nc1nc2[nH]cc(CCc3ccc(C(=O)N[C@@H](CCC(=O)O)C(=O)O)cc3)c2c(=O)[nH]1 [Pemetrexed] (partner 0.2 µM)
Summary of the method: (§1)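 Medians of duplicate plates are given as relative viability. That measure is the nuclei count in treated wells divided by the count in vehicle wells. Counts were taken on 4× images of lung cancer cell lines in 1536-well plates, 5 days after pin-tool dosing the day after seeding with one drug alone or a fixed anchor-drug dose plus five library-drug doses (not always all listed) in √10 steps.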

[2] = compound: COc1cc(Nc2c(C#N)cnc3cc(OCCCN4CCN(C)CC4)c(OC)cc23)c(Cl)cc1Cl [Bosutinib] + Nc1ncn([C@H]2C[C@H](O)[C@@H](CO)O2)c(=O)n1 [Decitabine] (partner 2 µM)
Summary of the method: as §1

[3] = compound: COc1cc(Nc2c(C#N)cnc3cc(OCCCN4CCN(C)CC4)c(OC)cc23)c(Cl)cc1Cl [Bosutinib] + O=C(c1cc(Cc2n[nH]c(=O)c3ccccc23)ccc1F)N1CCN(C(=O)C2CC2)CC1 [Olaparib] (partner 8 µM)
Summary of the method: as §1

[4] = compound: COc1cc(Nc2c(C#N)cnc3cc(OCCCN4CCN(C)CC4)c(OC)cc23)c(Cl)cc1Cl [Bosutinib] + O=C(CCCCCCC(=O)Nc1ccccc1)NO [Vorinostat] (partner 1 µM)
Summary of the method: as §1

[5] = compound: COc1cc(Nc2c(C#N)cnc3cc(OCCCN4CCN(C)CC4)c(OC)cc23)c(Cl)cc1Cl [Bosutinib] + Cc1nc(NC(=O)N2CCC[C@H]2C(N)=O)sc1-c1ccnc(C(C)(C)C(F)(F)F)c1 [Alpelisib] (partner 2 µM)
Summary of the method: as §1

With HCC-44 the relative viability ([1]; first compound 0.01 µM) was 0.661, the relative viability ([1]; first compound 0.03162 µM) was 0.642 and the relative viability ([1]; first compound 0.1 µM) was 0.683. It also gave a relative viability ([1]; first compound 1 µM) of 0.603, a relative viability ([2]; first compound 0.01 µM) of 0.97 and a relative viability ([2]; first compound 0.03162 µM) of 0.995. It also gave a relative viability ([2]; first compound 0.1 µM) of 0.971, a relative viability ([2]; first compound 1 µM) of 0.987 and a relative viability ([3]; first compound 0.01 µM) of 0.981. For the same cell line, the relative viability ([3]; first compound 0.03162 µM) was 0.923, the relative viability ([3]; first compound 0.1 µM) was 0.978 and the relative viability ([3]; first compound 1 µM) was 1.04. It also gave a relative viability ([4]; first compound 0.01 µM) of 1.08, a relative viability ([4]; first compound 0.03162 µM) of 1.11 and a relative viability ([4]; first compound 0.1 µM) of 1.06. The relative viability ([4]; first compound 1 µM) was 1.16, the relative viability ([5]; first compound 0.01 µM) was 0.749 and the relative viability ([5]; first compound 0.03162 µM) was 0.877. For the same cell line, the relative viability ([5]; first compound 0.1 µM) was 0.761 and the relative viability ([5]; first compound 1 µM) was 0.772.
In the case of LCLC-103H, the relative viability ([1]; first compound 0.01 µM) is reported as 0.442, the relative viability ([1]; first compound 0.03162 µM) is reported as 0.516 and the relative viability ([1]; first compound 0.1 µM) is reported as 0.5. For the same cell line, the relative viability ([1]; first compound 1 µM) was 0.449, the relative viability ([2]; first compound 0.01 µM) was 0.744 and the relative viability ([2]; first compound 0.03162 µM) was 0.792. The relative viability ([2]; first compound 0.1 µM) was 0.723, the relative viability ([2]; first compound 1 µM) was 0.69 and the relative viability ([3]; first compound 0.01 µM) was 0.734. For the same cell line, the relative viability ([3]; first compound 0.03162 µM) was 0.774, the relative viability ([3]; first compound 0.1 µM) was 0.741 and the relative viability ([3]; first compound 1 µM) was 0.782. It also gave a relative viability ([4]; first compound 0.01 µM) of 0.799, a relative viability ([4]; first compound 0.03162 µM) of 0.858 and a relative viability ([4]; first compound 0.1 µM) of 0.889. The relative viability ([4]; first compound 1 µM) was 0.841, the relative viability ([5]; first compound 0.01 µM) was 0.992 and the relative viability ([5]; first compound 0.03162 µM) was 1.06. It also gave a relative viability ([5]; first compound 0.1 µM) of 0.94 and a relative viability ([5]; first compound 1 µM) of 0.871.
Cell Line NCI-H1915 has a relative viability ([1]; first compound 0.01 µM) of 0.461, a relative viability ([1]; first compound 0.03162 µM) of 0.504 and a relative viability ([1]; first compound 0.1 µM) of 0.533. It also gave a relative viability ([1]; first compound 1 µM) of 0.46, a relative viability ([2]; first compound 0.01 µM) of 0.265 and a relative viability ([2]; first compound 0.03162 µM) of 0.261. For the same cell line, the relative viability ([2]; first compound 0.1 µM) was 0.242, the relative viability ([2]; first compound 1 µM) was 0.267 and the relative viability ([3]; first compound 0.01 µM) was 0.259. It also gave a relative viability ([3]; first compound 0.03162 µM) of 0.256, a relative viability ([3]; first compound 0.1 µM) of 0.258 and a relative viability ([3]; first compound 1 µM) of 0.26. It also gave a relative viability ([4]; first compound 0.01 µM) of 0.509, a relative viability ([4]; first compound 0.03162 µM) of 0.531 and a relative viability ([4]; first compound 0.1 µM) of 0.578. The relative viability ([4]; first compound 1 µM) was 0.571, the relative viability ([5]; first compound 0.01 µM) was 1.03 and the relative viability ([5]; first compound 0.03162 µM) was 1.07. For the same cell line, the relative viability ([5]; first compound 0.1 µM) was 1.1 and the relative viability ([5]; first compound 1 µM) was 1.06.
ChaGo-K-1 gave a relative viability ([1]; first compound 0.01 µM) of 0.244, a relative viability ([1]; first compound 0.03162 µM) of 0.26 and a relative viability ([1]; first compound 0.1 µM) of 0.249. It also gave a relative viability ([1]; first compound 1 µM) of 0.265, a relative viability ([2]; first compound 0.01 µM) of 0.496 and a relative viability ([2]; first compound 0.03162 µM) of 0.536. It also gave a relative viability ([2]; first compound 0.1 µM) of 0.511, a relative viability ([2]; first compound 1 µM) of 0.518 and a relative viability ([3]; first compound 0.01 µM) of 0.432. It also gave a relative viability ([3]; first compound 0.03162 µM) of 0.458, a relative viability ([3]; first compound 0.1 µM) of 0.401 and a relative viability ([3]; first compound 1 µM) of 0.435. The relative viability ([4]; first compound 0.01 µM) was 0.808, the relative viability ([4]; first compound 0.03162 µM) was 0.847 and the relative viability ([4]; first compound 0.1 µM) was 0.792. The relative viability ([4]; first compound 1 µM) was 0.789.
NCI-H1703 was tested, and the relative viability ([3]; first compound 0.01 µM) was 0.371, the relative viability ([3]; first compound 0.03162 µM) was 0.471 and the relative viability ([3]; first compound 0.1 µM) was 0.311. The relative viability ([3]; first compound 1 µM) was 0.26, the relative viability ([5]; first compound 0.01 µM) was 0.351 and the relative viability ([5]; first compound 0.03162 µM) was 0.378. For the same cell line, the relative viability ([5]; first compound 0.1 µM) was 0.294 and the relative viability ([5]; first compound 1 µM) was 0.261.
NCI-H2228 showed a relative viability ([1]; first compound 0.01 µM) of 0.354, a relative viability ([1]; first compound 0.03162 µM) of 0.308 and a relative viability ([1]; first compound 0.1 µM) of 0.361. The relative viability ([1]; first compound 1 µM) was 0.319, the relative viability ([3]; first compound 0.01 µM) was 0.654 and the relative viability ([3]; first compound 0.03162 µM) was 0.671. For the same cell line, the relative viability ([3]; first compound 0.1 µM) was 0.468, the relative viability ([3]; first compound 1 µM) was 0.735 and the relative viability ([4]; first compound 0.01 µM) was 0.664. For the same cell line, the relative viability ([4]; first compound 0.03162 µM) was 0.442, the relative viability ([4]; first compound 0.1 µM) was 0.605 and the relative viability ([4]; first compound 1 µM) was 0.552. It also gave a relative viability ([5]; first compound 0.01 µM) of 0.772, a relative viability ([5]; first compound 0.1 µM) of 0.75 and a relative viability ([5]; first compound 1 µM) of 0.587.
Cell Line NCI-H1650 has a relative viability ([1]; first compound 0.01 µM) of 0.304, a relative viability ([1]; first compound 0.03162 µM) of 0.366 and a relative viability ([1]; first compound 0.1 µM) of 0.404. For the same cell line, the relative viability ([1]; first compound 1 µM) was 0.301, the relative viability ([2]; first compound 0.01 µM) was 0.457 and the relative viability ([2]; first compound 0.03162 µM) was 0.378. For the same cell line, the relative viability ([2]; first compound 0.1 µM) was 0.378, the relative viability ([2]; first compound 1 µM) was 0.511 and the relative viability ([3]; first compound 0.01 µM) was 0.705. It also gave a relative viability ([3]; first compound 0.03162 µM) of 0.717, a relative viability ([3]; first compound 0.1 µM) of 0.632 and a relative viability ([3]; first compound 1 µM) of 0.565. For the same cell line, the relative viability ([4]; first compound 0.01 µM) was 0.717, the relative viability ([4]; first compound 0.03162 µM) was 0.623 and the relative viability ([4]; first compound 0.1 µM) was 0.529. For the same cell line, the relative viability ([4]; first compound 1 µM) was 0.41.
Work on NCI-H1792 yielded a relative viability ([1]; first compound 0.01 µM) of 0.902, a relative viability ([1]; first compound 0.03162 µM) of 0.792 and a relative viability ([1]; first compound 0.1 µM) of 0.891. It also gave a relative viability ([1]; first compound 1 µM) of 0.764, a relative viability ([2]; first compound 0.01 µM) of 0.611 and a relative viability ([2]; first compound 0.03162 µM) of 0.561. The relative viability ([2]; first compound 0.1 µM) was 0.623, the relative viability ([2]; first compound 1 µM) was 0.417 and the relative viability ([3]; first compound 0.01 µM) was 0.525. The relative viability ([3]; first compound 0.03162 µM) was 0.312, the relative viability ([3]; first compound 0.1 µM) was 0.548 and the relative viability ([3]; first compound 1 µM) was 0.273. It also gave a relative viability ([5]; first compound 0.01 µM) of 0.774, a relative viability ([5]; first compound 0.03162 µM) of 0.677 and a relative viability ([5]; first compound 0.1 µM) of 0.757. For the same cell line, the relative viability ([5]; first compound 1 µM) was 0.505.
In the case of NCI-H1563, the relative viability ([1]; first compound 0.01 µM) is reported as 0.655, the relative viability ([1]; first compound 0.03162 µM) is reported as 0.771 and the relative viability ([1]; first compound 0.1 µM) is reported as 0.772. It also gave a relative viability ([1]; first compound 1 µM) of 0.638, a relative viability ([5]; first compound 0.01 µM) of 0.905 and a relative viability ([5]; first compound 0.03162 µM) of 0.904. For the same cell line, the relative viability ([5]; first compound 0.1 µM) was 0.859 and the relative viability ([5]; first compound 1 µM) was 0.63.
IA-LM gave a relative viability ([3]; first compound 0.01 µM) of 0.964, a relative viability ([3]; first compound 0.03162 µM) of 0.927 and a relative viability ([3]; first compound 0.1 µM) of 0.858. It also gave a relative viability ([3]; first compound 1 µM) of 0.77, a relative viability ([4]; first compound 0.01 µM) of 1.06 and a relative viability ([4]; first compound 0.03162 µM) of 0.945. For the same cell line, the relative viability ([4]; first compound 0.1 µM) was 0.894, the relative viability ([4]; first compound 1 µM) was 0.947 and the relative viability ([5]; first compound 0.01 µM) was 0.832. The relative viability ([5]; first compound 0.03162 µM) was 0.733, the relative viability ([5]; first compound 0.1 µM) was 0.931 and the relative viability ([5]; first compound 1 µM) was 0.674.
In the case of CAL-12T, the relative viability ([1]; first compound 0.01 µM) is reported as 1.09, the relative viability ([1]; first compound 0.03162 µM) is reported as 1.26 and the relative viability ([1]; first compound 0.1 µM) is reported as 1.29. The relative viability ([1]; first compound 1 µM) was 1.18, the relative viability ([3]; first compound 0.01 µM) was 0.704 and the relative viability ([3]; first compound 0.03162 µM) was 0.665. The relative viability ([3]; first compound 0.1 µM) was 0.64, the relative viability ([3]; first compound 1 µM) was 0.766 and the relative viability ([4]; first compound 0.01 µM) was 0.756. It also gave a relative viability ([4]; first compound 0.03162 µM) of 0.773, a relative viability ([4]; first compound 0.1 µM) of 0.664 and a relative viability ([4]; first compound 1 µM) of 0.528. The relative viability ([5]; first compound 0.01 µM) was 1.09, the relative viability ([5]; first compound 0.03162 µM) was 1.09 and the relative viability ([5]; first compound 0.1 µM) was 1.2. It also gave a relative viability ([5]; first compound 1 µM) of 0.787.
